In US6680325B2, “Agents for combating plant pests” (Bayer Aktiengesellschaft, priority 1998, dated 2004):
Where two headings read alike, the source gives them in different places.

Legend:
[1] = tested on: Phaedon cochleariae larvae; experiment: Critical concentration test/root-systemic action, Phaedon cochleariae (cabbage); assay type: in vivo
Procedure: (§1) The active compound preparation is mixed intimately with soil. Here, the concentration of the active compound in the preparation is almost irrelevant; only the amount by weight of active compound or active compound mixture per volume unit of soil, which is stated in ppm (mg/l), matters.
Soil is filled into 250 ml pots and these are planted with cabbage (Brassica oleracea). The active compound or the active compound combination can thus be taken up by the plant roots from the soil and transported into the leaves.

[2] = tested on: Heliothis virescens caterpillars; experiment: Heliothis virescens test (soya bean shoot dip); assay type: in vivo
Pyrenophora teres = Pyrenophora teres test (barley)/protective; assay type: in vivo; conditions: 7 days after inoculation, single value given
Procedure: After the spray coating has dried on, the plants are sprayed with a conidia suspension of Pyrenophora teres.
The plants are then placed in a greenhouse at a temperature of approximately 20° C. and a relative atmospheric humidity of approximately 80%.
Evaluation is carried out 7 days after the inoculation.

Spodoptera frugiperda [3] = experiment: Critical concentration test/soil insects, Spodoptera frugiperda (maize); assay type: in vivo
Description: as §1

[4] = tested on: Diabrotica balteata - larvae in the soil; experiment: Critical concentration test/soil insects, Diabrotica balteata larvae in the soil (maize); assay type: in vivo
Procedure: (§2) Here, the concentration of the active compound in the preparation is almost irrelevant; only the amount by weight of active compound per volume unit of soil, which is stated in ppm (mg/l), matters. The soil is filled into 0.51 pots and these are allowed to stand at 20° C.
Immediately after preparation, 5 maize corns are placed into each pot. After 3 days, the test insects are placed into the treated soil. After a further 7 days, the efficacy is determined. The efficacy is calculated from the number of maize plants which have emerged.

Fusarium culmorum = Fusarium culmorum test (wheat)/seed treatment; assay type: in vivo; conditions: 75 g/ha, dry seed dressing, approximately 3 weeks after sowing
Procedure: Fusarium Culmorum Test (Wheat)/Seed Treatment
The active compounds are applied as a dry dressing. They are prepared by extending the active compound in question with ground minerals to give a finely pulverulent mixture which ensures even distribution on the surface of the seeds.
For the dressing, the infected seeds are shaken with the dressing in a closed glass bottle for 3 minutes.
2×100 seeds of the wheat are sown at a depth of 1 cm into standard soil, and the wheat is cultivated in a greenhouse at a temperature of approximately 18° C. and at a relative atmospheric humidity of approximately 95% in seed containers receiving 15 hours of light per day.
The evaluation of the plants for symptoms is carried out approximately 3 weeks after sowding.

Puccinia recondita = experiment: Puccinia test (wheat)/protective; assay type: in vivo; conditions: 18.75 g/ha, 10 days after inoculation
Procedure: After the spray coating has dried on, the plants are sprayed with a conidia suspension of Puccinia recondita.
The plants are then placed in a greenhouse at a temperature of approximately 20° C. and a relative atmospheric humidity of 80% to promote the development of rust pustules.
(§3) Evaluation is carried out 10 days after the inoculation.

Phytophthora infestans = assay type: in vivo; conditions: 3 days after inoculation
Spodoptera frugiperda [5] = experiment: Critical concentration test/root systemic action, Spodoptera frugiperda (maize); assay type: in vivo
Procedure: as §2, with “The preparation of active compound is mixed intimately with soil. Here,” for “Here,”, “virtually immaterial;” for “almost irrelevant;”, “250 ml” for “0.51”
Immediately after preparation, 3 maize corns are placed into each pot. 14 days after the preparation, the test insects are placed into an insect bracket and attached to the plant. 4 days after the infection, the efficacy of the active compound is determined in % by counting the dead and live test insects. The efficacy is 100% if all test insects have been killed; it is 0% if the same number of test insects is alive as in the untreated control.

[6] = tested on: green rice leaf hopper (Nephotettix cincticeps); experiment: Nephotettix test (rice seedling dip); assay type: in vivo
[7] = tested on: caterpillars of the diamondback moth (Plutella xylostella); experiment: Plutella test (cabbage leaf dip); assay type: in vivo
[8] = tested on: Erysiphe graminis f.sp. hordei; experiment: Erysiphe test (barley)/protective; assay type: in vivo; conditions: 62.5 g/ha, 7 days after inoculation; single value given
Sphaerotheca fuliginea = experiment: Sphaerotheca test (cucumber)/protective; assay type: in vivo; conditions: 10 days after inoculation
Procedure: After the spray coating has dried on, the plants are inoculated with an aqueous spore suspension of Sphaerotheca fuliginea.
as §3

[9] = tested on: larvae of the mustard beetle (Phaedon cochleariae); experiment: Phaedon larvae test (cabbage leaf dip)
Botrytis cinerea = experiment: Botrytis test (bean)/protective; conditions: 2 days after inoculation
Description: If the actual fungicidal activity exceeds the calculated value, then the activity of the combination is superadditive, i.e. a synergistic effect exists. In this case, the efficacy which was actually observed must be greater than the value for the expected efficacy (E) calculated from the formula set out above.
After the spray coating has dried on, 2 small pieces of agar colonized by Botrytis cinerea are placed onto each leaf. The inoculated plants are placed in a dark chamber at approximately 20° C. and 100% relative atmospheric humidity.
2 days after the inoculation, the size of the disease spots on the leaves is evaluated.

[10] = Spodoptera frugiperda, 120 h, 20.00 ppm in soil, read-out: Kill in %
[11] = Spodoptera frugiperda, soil, 120 h, read-out: Kill in %

In the case of `CO/C=C(/C(=O)OC)c1ccccc1Oc1cc(Oc2ccccc2C#N)ncn1` [azoxystrobin], the Kill in % ([1]; 20.00 ppm in soil) is reported as 0%, the Kill in % ([2]; concentration 0.0008 %) is reported as 0% and the “Efficacy in % calculated/found” value (Pyrenophora teres; 18.75 g/ha) is reported as 0%. For the same compound, the pest or weed control at 20 ppm (Spodoptera frugiperda [3]; [10]) was 0%.
For `Cc1noc(C)c1S(=O)(=O)n1c(Cl)nc2cc3c(cc21)OC(F)(F)O3` [compound according to (50)], the Kill in % ([4]; 20.00 ppm in soil) was 20.00 ppm = 70%.
With `CC(C)(C)C(O)C(Oc1ccc(Cl)cc1)n1cncn1` (centres unmarked) [triadimenol] the Efficacy in % (Fusarium culmorum) was 13.5%, the Efficacy in % (Puccinia recondita) was 13% and the “Efficacy in % found” value (Phytophthora infestans; 500 g/ha) was 0%. For the same compound, the Kill in % ([1]; 20.00 ppm in soil) was 0% and the pest or weed control at 20 ppm (Spodoptera frugiperda [3]; [10]) was 0%.
With `OC(Cc1ccccc1Cl)(Cn1nc[nH]c1=S)C1(Cl)CC1` (centres unmarked) [compound of group (49)] the Kill in % (Spodoptera frugiperda [5]; 5.00 ppm in soil) was 5.00 ppm = 0%.
propiconazole was tested, and the “Efficacy in % found” value (Phytophthora infestans; 500 g/ha) was 5%, the Kill in % ([1]; 20.00 ppm in soil) was 0% and the Kill in % (Spodoptera frugiperda [3]; 20.00 ppm in soil) was 0%.
`[O-][n+]1nc(-n2ccnc2)nc2ccc(Cl)cc21` [triazoxides] was tested, and the “Efficacy in % calculated/found” value (Pyrenophora teres; 62.5 g/ha) was 40%.
With `COCC(=O)N(c1c(C)cccc1C)C(C)C(=O)OC` (centres unmarked) [metalaxyl] the Kill in % ([6]; concentration 0.1 %) was 0%, the “Efficacy in % found” value (Phytophthora infestans; 50 g/ha) was 42% and the Kill in % ([1]; 20.00 ppm in soil) was 0%. For the same compound, the pest or weed control at 20 ppm (Spodoptera frugiperda [3]; [10]) was 0% and the Kill in % ([7]; concentration 0.1 %) was 0%.
With `CNC(=N[N+](=O)[O-])NCc1cnc(Cl)s1` [formula (I)] the “Efficacy in % calculated/found” value [8] was 0%, the Kill in % ([6]; concentration 0.00000128 %) was 0% and the “Efficacy in % found” value (Sphaerotheca fuliginea; 10 g/ha) was 0%. The “Efficacy in % found” value (Sphaerotheca fuliginea; 500 g/ha) was 0%, the Kill in % (Spodoptera frugiperda [5]; 0.15 ppm in soil) was 0.15 ppm = 50% and the Efficacy in % (Fusarium culmorum) was 0%. The Efficacy in % (Puccinia recondita) was 0%, the Kill in % ([4]; 0.15 ppm in soil) was 0.15 ppm = 0% and the Kill in % ([4]; 0.30 ppm in soil) was 0.30 ppm = 50%. The Kill in % ([1]; 0.30 ppm in soil) was 50%, the Kill in % ([1]; 0.60 ppm in soil) was 80% and the Kill in % ([1]; 1.25 ppm in soil) was 100%. It also gave a Kill in % ([2]; concentration 0.00016 %) of 50%, a Kill in % ([9]; concentration 0.000032 %) of 0% and a Kill in % ([9]; concentration 0.00016 %) of 20%. For the same compound, the “Efficacy in % calculated/found” value (Pyrenophora teres; 18.75 g/ha) was 20%, the “Efficacy in % calculated/found” value (Pyrenophora teres; 62.5 g/ha) was 0% and the pest or weed control at 0.06 ppm (Spodoptera frugiperda [3]; [11]) was 98%. The pest or weed control at 0.3 ppm (Spodoptera frugiperda [3]; [11]) was 50%, the pest or weed control at 1.25 ppm (Spodoptera frugiperda [3]; [11]) was 100% and the Kill in % ([7]; concentration 0.0008 %) was 0%. The “Efficacy in % found” value (Botrytis cinerea; 10 g/ha) was 0% and the “Efficacy in % found” value (Botrytis cinerea; 100 g/ha) was 4%.
For `CC(C)(C)C(O)C(Oc1ccc(-c2ccccc2)cc1)n1cncn1` (centres unmarked) [bitertanol], the Kill in % ([1]; 20.00 ppm in soil) was 0% and the pest or weed control at 20 ppm (Spodoptera frugiperda [3]; [10]) was 0%.
Work on `CC(C)(C)C(O)(CCc1ccc(Cl)cc1)Cn1cncn1` (centres unmarked) [tebuconazole] yielded a Kill in % ([1]; 20.00 ppm in soil) of 0%, a pest or weed control at 20 ppm (Spodoptera frugiperda [3]; [10]) of 0% and a Kill in % ([7]; concentration 0.02 %) of 0%. The “Efficacy in % found” value (Botrytis cinerea; 100 g/ha) was 80%.
With `N#Cc1c[nH]cc1-c1cccc(Cl)c1Cl` [fenpiclonil] the “Efficacy in % found” value (Sphaerotheca fuliginea; 500 g/ha) was 50%, the Kill in % ([1]; 20.00 ppm in soil) was 0% and the pest or weed control at 20 ppm (Spodoptera frugiperda [3]; [10]) was 0%.
`CC(C1CC1)C(O)(Cn1cncn1)c1ccc(Cl)cc1` (centres unmarked) [cyproconazole] was tested, and the “Efficacy in % found” value (Sphaerotheca fuliginea; 10 g/ha) was 70% and the pest or weed control at 20 ppm (Spodoptera frugiperda [3]; [10]) was 0%.
`CO/N=C(/C(=O)OC)c1ccccc1COc1ccccc1C` [kresoxim-methyl] was tested, and the “Efficacy in % calculated/found” value [8] was 0% and the Kill in % ([9]; concentration 0.1 %) was 0%.
Compound `CO/N=C(\C1=NOCCO1)c1ccccc1Oc1ncnc(Oc2ccccc2Cl)c1F` [compound according to (48)] has a Kill in % ([4]; 20.00 ppm in soil) of 20.00 ppm = 0%.
For `N#Cc1c[nH]cc1-c1cccc2c1OC(F)(F)O2` [fludioxonil], the Efficacy in % (Fusarium culmorum) was 0% and the “Efficacy in % found” value (Botrytis cinerea; 10 g/ha) was 40%.
